# Measurements published in paper PMC5831498 (Virus research, 2018).
# Like-named read-outs stand apart in the source and are kept apart here. Marks after values point to notes of the source that are not given here. Bridge positions count the residues as written; N and C are the ends. Square brackets hold non-standard residues; d marks the D form. Peptide text beside a SMILES is read from it. * marks the point of attachment. Ileψ(thiazoline)Cys = CC[C@H](C)[C@H](N)C1=N[C@H](C(=O)*)CS1; dOrn = NCCC[C@@H](N)C(=O)O
# How the values were obtained:
# [1] = tested on: Human influenza A virus (A/WS/33 [H1N1]); assay: microbe, parasite or virus in culture; type: cell-based; conditions: for EC50: read-out: EC50 A/WS/33; for inhibition of replication of A/WS/33 (in words): MDCK cells; for SI for A/WS/33 (selectivity index): CC50/EC50, MDCK cells
# [2] = tested on: Swine influenza A virus (A/swine/OH/511445/2007 [H1N1], Oh7); assay: microbe, parasite or virus in culture; type: cell-based; conditions: read-out: EC50 A/swine/OH/2007
# MDCK cells = assay: Nonspecific cytotoxicity, CytoTox 96 assay; type: cell-based, canine; conditions: 24 hr treatment, SD in parentheses
# PDI1 enzyme = PDI1 enzyme (Homo sapiens, UniProt P07237); assay: ProteoStat PDI assay; type: biochemical; conditions: for PDI1 activity relative to mock: mock = 100, SD in parentheses; for effect on PDI1 activity (in words): at 10 or 50 µM
# Group A rotavirus SA11 = assay: Rotavirus replication in MA104 cells; type: cell-based
# [3] = tested on: influenza B virus (B/Lee/40); assay: Antiviral assay, virus titration by TCID50, MDCK cells; type: cell-based; conditions: for inhibition of replication of B/Lee/40 (in words): MDCK cells; for EC50: Influenza B virus, MDCK, read-out: EC50 B/Lee/40
# [4] = Nonspecific cytotoxicity, CytoTox 96 assay; type: cell-based, canine; conditions: dog, MDCK cells
# A/WS/33 = type: cell-based, influenza A virus
# [5] = Influenza A virus, H1N1, MDCK, in Sus scrofa
# Chain of PDI1 enzyme (P07237 18-508): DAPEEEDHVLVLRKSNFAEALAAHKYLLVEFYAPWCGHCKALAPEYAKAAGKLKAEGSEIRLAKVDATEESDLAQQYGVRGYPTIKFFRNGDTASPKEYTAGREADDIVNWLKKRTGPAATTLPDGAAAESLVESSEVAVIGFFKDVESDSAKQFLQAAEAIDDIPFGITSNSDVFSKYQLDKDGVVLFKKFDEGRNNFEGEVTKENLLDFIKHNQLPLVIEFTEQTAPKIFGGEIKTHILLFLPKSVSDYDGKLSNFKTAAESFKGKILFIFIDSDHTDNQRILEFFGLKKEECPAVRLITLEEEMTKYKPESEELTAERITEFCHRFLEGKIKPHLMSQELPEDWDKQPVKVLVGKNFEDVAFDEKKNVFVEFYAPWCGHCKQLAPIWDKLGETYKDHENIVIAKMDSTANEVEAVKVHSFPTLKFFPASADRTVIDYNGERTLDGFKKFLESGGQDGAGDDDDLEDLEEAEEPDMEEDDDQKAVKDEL
Compound,EC50 [1] [µM],EC50 [2] [µM],CC50 (MDCK cells) [µM],PDI1 activity relative to mock (PDI1 enzyme; compound at 10 µM),PDI1 activity relative to mock (PDI1 enzyme; compound at 50 µM),inhibition of replication of A/WS/33 (in words) [1],"EC50 (Group A rotavirus SA11; read-out: EC50 rotavirus SA11 replication, MA104 cells) [µM]",inhibition of replication of B/Lee/40 (in words) [3],SI for A/WS/33 (selectivity index) [1],"EC50 ([1]; Influenza A virus, H1N1, MDCK) [µM]",EC50 [3] [µM],"EC50 [2, 5] [µM]",CC50 at 24 h [4] [µM],effect on PDI1 activity (in words) (PDI1 enzyme),"EC50 (Group A rotavirus SA11; Rotavirus A, MA104, read-out: EC50 rotavirus SA11 replication) [µM]","reduction of viral proteins (NP or M1), Western blot (A/WS/33)"
COC(=O)C1(C)c2[nH]c3ccccc3c2CCN1C(=O)CCl (centres unmarked) [16F16],5.1,5.8,15,89 (6) %,59 (6) ^* %,–,–,–,–,–,–,–,–,–,–,–
"C=CCNC1=C2C[C@@H](C)C[C@H](OC)[C@H](O)[C@@H](C)/C=C(\C)[C@H](OC(N)=O)[C@@H](OC)/C=C\C=C(/C)C(=O)NC(=CC1=O)C2=O [17-AAG, 17-N-Allylamino-17-demethoxygeldanamycin]",> 10,–,–,–,–,did not show any inhibitory activity,< 1,did not show any inhibitory activity,–,–,–,–,–,–,–,–
"NC12CC3CC(CC(C3)C1)C2 [Amantidine, amantadine]",–,–,–,102 (5) %,103 (4) %,potently inhibited,–,–,>83.3,1.2,> 100,1.4,> 100,little effect,–,–
"CC[C@H](C)[C@H](N)C1=N[C@H](C(=O)N[C@@H](CC(C)C)C(=O)N[C@H](CCC(=O)O)C(=O)N[C@H](C(=O)N[C@H]2CCCCNC(=O)[C@H](CC(N)=O)NC(=O)[C@@H](CC(=O)O)NC(=O)[C@H](Cc3cnc[nH]3)NC(=O)[C@@H](Cc3ccccc3)NC(=O)[C@H]([C@@H](C)CC)NC(=O)[C@@H](CCCN)NC2=O)[C@@H](C)CC)CS1 [Bacitracin A, bacitracin A] ({Ileψ(thiazoline)Cys}-L[dE]IK[dOrn]I[dF]H[dD]N; lactam 4-C)",–,–,–,81 (3) ^* %,53 (12) ^* %,–,–,–,–,> 500,> 500,> 500,–,–,–,–
"CC(C)(C)N([O])C(C)(C)C [Di-tert-butyl nitroxide (DTBN), Di-tert-butyl nitroxide]",210,–,> 1000,67 (6) ^* %,25 (9) ^* %,–,–,–,–,–,–,–,–,–,–,–
"COC1=C2C[C@@H](C)C[C@H](OC)[C@H](O)[C@@H](C)/C=C(\C)[C@H](OC(N)=O)[C@@H](OC)/C=C\C=C(/C)C(=O)NC(=CC1=O)C2=O [GDA, geldanamycin]",–,–,–,102 (5) %,96 (2) %,did not show any inhibitory activity,–,did not show any inhibitory activity,–,> 10,> 10,> 10,–,little effect,< 1,–
"O=c1c(O[C@@H]2O[C@H](CO)[C@@H](O)[C@H](O)[C@H]2O)c(-c2ccc(O)c(O)c2)oc2cc(O)cc(O)c12 [Isoquercetin (IQ), isoquercetin]",–,–,–,32 (5) ^* %,13 (8) ^* %,–,–,–,90,0.5,1.2,1.2,45.5,–,–,–
"C/C1=C/[C@H](O)C(C)(C)CCC/C(C)=C/C[C@H]1OC(=O)c1ccc(O)cc1 [Juniferdin, juniferdin]",–,–,–,41 (5) ^* %,6 (4) ^* %,–,–,–,8.8,1.5,3.1,1.8,13.2,–,–,dose-dependent
"CC(=O)Oc1ccccc1C(=O)Nc1ncc([N+](=O)[O-])s1 [NTZ, nitazoxanide]",–,–,–,81 (2) ^* %,65 (4) ^* %,–,–,–,16,0.8,1.5,1.3,12.8,–,–,–
"CCOC(=O)C1=C[C@@H](OC(CC)CC)[C@H](NC(C)=O)[C@@H](N)C1 [Oseltamivir, oseltamivir phosphate]",–,–,–,103 (6) %,95 (5) %,potently inhibited,–,potently inhibited,>660,0.15,1.1,0.5,> 100,little effect,–,–
Epigallocatechin 3-gallate [Epigallocatechin 3-gallate (EGCG)],4.5,–,35.4,68 (7) ^* %,28 (5) ^* %,–,–,–,–,–,–,–,–,–,–,–
PACMA31,6.1,–,12.5,91 (3) %,71 (9) ^* %,–,–,–,–,–,–,–,–,–,–,dose-dependent
